Structures are written as SMILES.

The record followed here is PMC11173618, “C2-Symmetrical Terphenyl Derivatives as Small Molecule Inhibitors of Programmed Cell Death 1/Programmed Death Ligand 1 Protein–Protein Interaction” (Molecules, 2024).

The target in one assay is T1, PD-1/PD-L1 complex (Homo sapiens, UniProt Q9NZQ7).
T1 construct: purchased cis-bio
Description: HTRF assay of PD-1/PD-L1 complex inhibition (cis-bio kit). Format: binding. Conditions: 1 h, scouting mode, 5 nM PD-L1, 50 nM PD-1, read-out: HTRF [%] (percentage of dissociated PD-1/PD-L1 complex); for inhibition at 0.5 µM: inhibitor 0.5 µM; for inhibition at 5 µM: inhibitor 5 µM. On the procedure: All synthesized molecules were tested in the homogeneous time-resolved fluorescence (HTRF) assay to assess their activity as inhibitors of the PD-1/PD-L1 complex (Table 1, Table 2 and Table 3). This evaluation was conducted in scouting modes, employing concentrations of 5 μM and 0.5 μM. Based on the obtained measurements, the IC50 values were estimated for each tested compound.
The certified cis-bio assay kit was used to perform the HTRF assay. Following the standard protocol, the measurement was carried out at a 20 µL final volume with a 5 nM concentration of PD-L1 and a 50 nM concentration of PD-1 in the final formulation. […] The plate was incubated for 1 h and then read on an HTRF-certified Tecan Spark 20M microplate reader. Output data were subjected to background subtraction on negative control (without PD-1) and normalization in correlation to the positive control (without inhibitor) and were then averaged. The resulting data points were then fitted with Hill’s equation to generate IC50 using Mathematica 12. […]

The target in assay [1] is T2, human PD-L1 protein (amino acids 18-134) (Homo sapiens, UniProt Q9NZQ7).
T2 construct: human PD-L1 protein (amino acids 18-134); made in house; host or cells: E. coli BL21 (pET-21b)
T2 sequence (Q9NZQ7 18-134): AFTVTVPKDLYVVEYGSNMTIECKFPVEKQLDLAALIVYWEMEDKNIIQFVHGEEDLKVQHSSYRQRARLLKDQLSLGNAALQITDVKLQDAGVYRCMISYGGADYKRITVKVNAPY
Description: 1H NMR binding assay. Conditions: ligand/protein 1:1, 0.2 mM PD-L1, 300 K.
Description: NMR spectra were recorded in 10 mM Tris, pH 8.0 20 mM NaCl containing 10% (v/v) of D2O added to the samples to provide the lock signal. Water suppression was carried out using the WATERGATE sequence. All the spectra were recorded at 300 K using a Bruker AVANCE 600 MHz spectrometer (Bruker, Billerica, MA, USA) with the cryoplatform.
The spectra were recorded at the ligand/protein ratio of 1:1 unless stated otherwise. The samples were prepared by adding small amounts of a 50 mM ligand stock solution in DMSO to the protein solution (0.20 mL) of PD-L1 fragment at a concentration of 0.2 mM. […] Spectra were visualized using TopSpin 4.0.2.

T1 sequence (Q9NZQ7 19-238 limits assumed, one chain of several): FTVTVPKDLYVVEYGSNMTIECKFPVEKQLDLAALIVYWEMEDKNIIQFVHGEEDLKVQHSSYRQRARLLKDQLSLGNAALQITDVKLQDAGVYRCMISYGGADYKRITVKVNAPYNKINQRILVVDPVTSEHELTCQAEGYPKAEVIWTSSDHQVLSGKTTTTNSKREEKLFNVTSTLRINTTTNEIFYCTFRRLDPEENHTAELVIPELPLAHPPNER

`CC(=O)NCCNCc1cccc(OCc2ccc(-c3cccc(-c4ccc(COc5cccc(CNCCNC(C)=O)c5Br)cc4)c3C)cc2)c1Br` [Compound 7j, N,N’-(((((((2′-methyl-[1,1′:3′,1′′-terphenyl]-4,4′′-diyl)bis(methylene))bis(oxy))bis(2-bromo-3,1-phenylene))bis(methylene))bis(azanediyl))bis(ethane-2,1-diyl))diacetamide]: on PD-1/PD-L1 complex, the inhibition at 0.5 µM turned out to be 40.4 ± 1.5% and the inhibition at 5 µM was determined as 11.1 ± 0.3%.
As to `Cc1c(-c2cccc(COc3cccc(CNCCO)c3Br)c2)cccc1-c1cccc(COc2cccc(CNCCO)c2Br)c1` [Compound 8a, 2,2′-((((((2′-methyl-[1,1′:3′,1′′-terphenyl]-3,3′′-diyl)bis(methylene))bis(oxy))bis(2-bromo-3,1-phenylene))bis(methylene))bis(azanediyl))bis(ethan-1-ol)], on PD-1/PD-L1 complex, the inhibition at 0.5 µM is 94.6 ± 0.1% and the inhibition at 5 µM was 23 ± 0.1%.
Take `COc1cccc(CNCCNC(C)=O)c1OCc1cccc(-c2cccc(-c3cccc(COc4c(CNCCNC(C)=O)cccc4OC)c3)c2C)c1` [Compound 8b, N,N’-(((((((2′-methyl-[1,1′:3′,1′′-terphenyl]-3,3′′-diyl)bis(methylene))bis(oxy))bis(3-methoxy-2,1-phenylene))bis(methylene))bis(azanediyl))bis(ethane-2,1-diyl))diacetamide]: the “Binding to PD-L1 by 1H NMR (broadening of PD-L1 proton signals)” value in assay [1] is given as “affinity of the test compounds for the PD-L1 protein is confirmed”. Moreover, on PD-1/PD-L1 complex, the inhibition at 0.5 µM is 88.9 ± 3.8% and the inhibition at 5 µM amounted to 73.6 ± 5.3%.
`COc1cccc(CNCCO)c1OCc1cccc(-c2cccc(-c3cccc(COc4c(CNCCO)cccc4OC)c3)c2C)c1` [Compound 8c, 2,2′-((((((2′-methyl-[1,1′:3′,1′′-terphenyl]-3,3′′-diyl)bis(methylene))bis(oxy))bis(3-methoxy-2,1-phenylene))bis(methylene))bis(azanediyl))bis(ethan-1-ol)]: on PD-1/PD-L1 complex, the inhibition at 0.5 µM was determined as 104 ± 3.3% and the inhibition at 5 µM stood at 61.1 ± 4.5%.
